Details: Liquid, Vibrating tube method

Cc1ccccc1O [2-methylphenol]
Details	mass density [kg/m3]
313.2 K, 1022 kPa	1027.5
313.2 K, 2031 kPa	1028.1
313.2 K, 3017 kPa	1028.7
313.2 K, 4012 kPa	1029.2
313.2 K, 5018 kPa	1029.8
313.2 K, 6010 kPa	1030.4
313.2 K, 7005 kPa	1030.9
313.2 K, 8006 kPa	1031.5
313.2 K, 9004 kPa	1032
313.2 K, 10005 kPa	1032.6
323.16 K, 1013 kPa	1018.7
323.16 K, 2039 kPa	1019.3
323.16 K, 3007 kPa	1019.9
323.16 K, 4009 kPa	1020.5
323.16 K, 5005 kPa	1021.1
323.16 K, 6004 kPa	1021.7
323.16 K, 6999 kPa	1022.2
323.16 K, 8008 kPa	1022.8
323.16 K, 9002 kPa	1023.4
323.16 K, 10005 kPa	1024
333.1 K, 1010 kPa	1009.9
333.1 K, 2033 kPa	1010.5
333.1 K, 3009 kPa	1011.1
333.1 K, 4014 kPa	1011.8
333.1 K, 5004 kPa	1012.4
333.1 K, 5998 kPa	1013
333.1 K, 7000 kPa	1013.6
333.1 K, 8009 kPa	1014.2
333.1 K, 9004 kPa	1014.8
333.1 K, 10010 kPa	1015.4
343.06 K, 1023 kPa	1000.8
343.06 K, 2024 kPa	1001.6
343.06 K, 3015 kPa	1002.2
343.06 K, 4003 kPa	1002.9
343.06 K, 5009 kPa	1003.6
343.06 K, 6005 kPa	1004.2
343.06 K, 7008 kPa	1004.8
343.06 K, 8003 kPa	1005.5
343.06 K, 8999 kPa	1006.1
343.06 K, 10004 kPa	1006.7
352.99 K, 1043 kPa	991.9
352.99 K, 2000 kPa	992.6
352.99 K, 3034 kPa	993.3
352.99 K, 4015 kPa	994
352.99 K, 5033 kPa	994.6
352.99 K, 6007 kPa	995.3
352.99 K, 7016 kPa	996
352.99 K, 8006 kPa	996.7
352.99 K, 9015 kPa	997.3
352.99 K, 10014 kPa	998
